This is an account of results in EP4341264B1, “PYRROLOPIRIMIDINE DERIVATIVES AND THEIR USE IN THE TREATMENT OF LEISHMANIASIS” (Drugs for Neglected Diseases Initiative, priority 2021, dated 2022).

Each structure is given as a SMILES string. Where two headings read alike, the source gives them in different places.

Series [1] has as its system L. infantum. The experiment in a line: VL hamster model in vivo efficacy (reduction of parasite load vs. control). Conditions: 40 mg/kg qd, 5 days. On the procedure:
The in vivo efficacy of the compounds C1, C3, C4, and miltefosine was evaluated in a VL hamster model infected with L. infantum. The in vivo studies were performed in accordance with the methods described by Van den Kerkhof et al. [IJP: Drugs and Drug Resistance, 2018, 8, Issue 1, 81-86]. Following treatment, the reduction of parasite load vs. control was determined in different body compartments (liver, spleen, and bone marrow) with results presented in Table 4. Table 4. Hamster in vivo efficacy

Series [2] relates to MRC-5SV2 cells. The note with it: printed in SI column; data from IJP: Drugs and Drug Resistance, 2018, 8, 81-86; cited from earlier work.
For series [3], the system named is L. infantum (MHOM/MA/67/ITMAP263). Conditions: cited from earlier work.
The test system of series [4] is L. infantum (MHOM/FR/96/LEM3323-cl4). Kind of series: Leishmania clinical isolate panel screen (drug-susceptibility assay in infected macrophages). Conditions: Macrophage, Visceral leishmaniasis, L. infantum (MHOM/FR/96/LEM3323-cl4), Miltefosine: mean only, read-out: IC50 Mean ± SEM. The series is classed as cell-based. As to the method:
(§1) Female Swiss mice (BW ~20 g) were purchased from a commercial source (Janvier France) and kept in quarantine for 1 week. The animals were housed in group and drinking water was available ad libitum. To harvest peritoneal macrophages, the mice were first stimulated by intraperitoneal injection of 1 mL of starch solution (2% in PBS). After 24 h, macrophages were collected in RPMI-1640 supplemented with 5% iFCS, 2% penicillin-streptomycin and 1% L-glutamine by peritoneal lavage and immediately distributed in a 96-well plate at a concentration of 30,000 cells/well. The cells were incubated for 24 h at 37°C and 5 % CO2 to allow cell attachment.
(§2) Strains of L. donovani, L. infantum, L. major, L. tropica, L. guyanensis and L. panamensis were selected based on their intrinsic susceptibility to the commonly used reference drugs and their geographic distribution. All strains were cultivated in HOMEM promastigote medium and sub-cultured twice weekly. Passage numbers were kept as low as possible to avoid loss of virulence. For infection of the macrophages, metacyclic promastigote cultures were examined light microscopically for the abundant presence of metacyclic promastigotes. Upon counting, promastigotes were centrifuged and diluted in RPMI-1640 to the desired concentration. The infection ratio varied based on the ability of the strain to adequately infect the host cells and ranged from 5 to 20 promastigotes per macrophage. Macrophages were infected by adding 100 µL promastigote suspension per well onto the macrophages. When ex vivo amastigotes were available (only for two lab strains), macrophages were infected at a ratio of 10/1.
(§3) Stock solutions of the DNDi lead compounds were prepared in 100% DMSO at 20 mM and robotically further diluted in water. Miltefosine (MIL) was included as reference and formulated in water at a concentration of 20 mM. The medium was discarded from the plates to remove any residual non-internalized promastigotes and replaced by fresh RPMI-1640 medium supplemented with iFBS, P/S and L-glutamine (as described above). Next, a 2-fold dilution series of each lead compound was added to the plate with 64 µM as the highest in test-concentration for the DNDi leads and 40 µM for MIL. The 96-well plates were further incubated at 34-37°C and 5% CO2. For staining, the culture medium was discarded, and the plates were left to dry for 2-4 hours. The cells were then fixated with methanol for 10 minutes and stained with a 1/5 Giemsa dilution in water for 15 minutes. The percentage infection-inhibition compared to a positive control (untreated infected macrophages) was microscopically determined and used to calculate the IC50 and IC90 values.

For series [5], the system named is L. donovani (MHOM/ NP/2003/BPK282/0-cl4). Described as above. In kind it is cell-based. The note with it: Macrophage, read-out: IC50 Mean ± SEM. As to the method: as §1, §2, §3
Series [6] deals with L. infantum (LEM3323-cl4 PMM). The series is described as above. In kind it is cell-based. Conditions: Macrophage, read-out: IC50 Mean ± SEM. As to the method: as §1, §2, §3
Series [7] has as its system L. donovani (MHOM/NP/03/BPK275/0-cl18). The description is as above. The note with it: Macrophage, Visceral leishmaniasis, L. donovani (MHOM/NP/03/BPK275/0-cl18), Miltefosine: mean only, read-out: IC50 Mean ± SEM. The series is classed as cell-based. As to the method: as §1, §2, §3
Series [8] concerns L. guyanensis (MHOM/PE/02/PER 054/0). Described as above. In kind it is cell-based. Conditions: Macrophage, Cutaneous leishmaniasis, L. guyanensis (MHOM/PE/02/PER 054/0), Miltefosine: mean only, read-out: IC50 Mean ± SEM. As to the method:
as §1, §2, §3

The subject of series [9] is L. infantum (LEM3323-cl4 MIL). The description is as above. Conditions: Macrophage, read-out: IC50 Mean ± SEM. The series is classed as cell-based. On the procedure:
as §1, §2, §3

Series [10] deals with L. tropica (MHOM/AF/2015/HTD7). Described as above. The series is classed as cell-based. The note with it: Macrophage, Cutaneous leishmaniasis, L. tropica (MHOM/AF/2015/HTD7), Miltefosine: mean only, read-out: IC50 Mean ± SEM. As to the method:
as §1, §2, §3

Series [11] deals with L. infantum (MHOM/BR/2007/WC (L3015)). The description is as above. In kind it is cell-based. The note with it: Macrophage, Visceral leishmaniasis, L. infantum (MHOM/BR/2007/WC (L3015)), Miltefosine: mean only, read-out: IC50 Mean ± SEM. On the procedure:
as §1, §2, §3

The test system of series [12] is L. major (MHOM/SA/85/JISH118). Described as above. The series is classed as cell-based. The note with it: Macrophage, Cutaneous leishmaniasis, L. major (MHOM/SA/85/JISH118), Miltefosine: mean only, read-out: IC50 Mean ± SEM. On the procedure: as §1, §2, §3
Series [13] concerns L. panamensis (MHOM/PA/71/LS94). Described as above. The series is classed as cell-based. Conditions: Macrophage, Cutaneous leishmaniasis, L. panamensis (MHOM/PA/71/LS94), Miltefosine: mean only, read-out: IC50 Mean ± SEM. As to the method: as §1, §2, §3
The subject of series [14] is L. infantum (MHOM/ES/2016/LLM-2346). The series is described as above. The series is classed as cell-based. The note with it: Macrophage, Visceral leishmaniasis, L. infantum (MHOM/ES/2016/LLM-2346), Miltefosine: mean only, read-out: IC50 Mean ± SEM. On the procedure: as §1, §2, §3
Series [15] concerns L. major (MHOM/IL/81/Friedlin). The description is as above. The series is classed as cell-based. Conditions: Macrophage, Cutaneous leishmaniasis, L. major (MHOM/IL/81/Friedlin), Miltefosine: mean only, read-out: IC50 Mean ± SEM. As to the method: as §1, §2, §3
In series [16] the test system is L. donovani (MHOM/ET/67/L82). The note with it: cited from earlier work.

Turning to `CCCCCCCCCCCCCCCCOP(=O)([O-])OCC[N+](C)(C)C` [Miltefosine, reference compound], the “% Parasite reduction Bone marrow” value in series [1] (bone marrow) is reported as 92.1-99.0%. Further, in series [1] (liver), the “% Parasite reduction Liver” value is on record as 97.0-98.2%. Further, the “% Parasite reduction Spleen” value in series [1] (spleen) was 95.7-99.5%. Moreover, the CC50 (in general, the concentration giving 50% cytotoxicity) in series [2] was 38500 nM. Further, the half-inhibitory concentration (IC50) (in general, the concentration that inhibits the measured activity by half) in series [3] (L. infantum infected macrophages, IJP: Drugs and Drug Resistance, 2018, 8, Issue 1, 81-86) is 3500 ± 400 nM; in [3] (L. infantum, data from IJP: Drugs and Drug Resistance, 2018, 8, 81-86), 3500 ± 400 nM; in series [4], 1810 nM; in series [5], 2010 nM; in [6], 20300 nM; in series [7], 2070 nM. The IC50 in series [8] was found to be 8060 nM; in series [9] it was 2010 nM; in series [10] it was 2160 nM; in series [11], 2690 nM; in series [12], 24000 nM; in [13], 1810 nM. For the same molecule, the IC50 in [14] is 2160 nM; in series [15] it was 11300 nM; in series [16] (L. donovani infected macrophages, IJP: Drugs and Drug Resistance, 2018, 8, Issue 1, 81-86) it was 1800 ± 400 nM; in series [16] (L. donovani, data from IJP: Drugs and Drug Resistance, 2018, 8, 81-86), 1800 ± 400 nM.
